We go through two molecules from US7320785B2, “Compositions and methods for modulation of DARPP-32 phosphorylation” (The Rockefeller University, priority 2001, dated 2008).

Series [1] deals with DARPP-32. The series is described as follows: DARPP-32 phosphorylation in vivo in mice after i.p. injection, immunoblotting. Also on record: species or system mouse.
Series [2] deals with DARPP-32. The experiment in a line: Total DARPP-32 protein levels after chronic treatment with fluoxetine. It is filed as in vivo, mouse. The following applies: chronic fluoxetine 10 mg/kg i.p., compared with chronic saline. Here is the method: (§1) In all experiments, hippocampi, prefrontal cortices, and striata were rapidly dissected out and stored at −80° C. until assayed.
For a further series, the system named is inhibitor-1. The series is described as follows: Total inhibitor-1 protein levels after chronic treatment with fluoxetine. The following applies: chronic fluoxetine 10 mg/kg i.p. It is filed as in vivo, mouse. Here is the method: as §1
The test system of another series is DARPP-32 mRNA. The experiment in a line: DARPP-32 mRNA levels by in situ hybridization after chronic fluoxetine. The following applies: fluoxetine 10 mg/kg i.p. once daily for 19 days. It is filed as in vivo, mouse. Here is the method: (§2) Brains were rapidly dissected out and frozen at −80° C. Cryostat sections (12-μm) were prepared and hybridized with [α-^35S]UTP-labeled riboprobes prepared by in vitro transcription from cDNA clones corresponding to full-length clones of DARPP-32 or inhibitor-1 as described (21). After hybridization, the sections were exposed to Biomax MR film (Kodak) for 2 14 days and analyzed with a Microcomputer Imaging Device system (M4, Imaging Research, St. Catherine's, ON, Canada).

The test system of the next series is inhibitor-1 mRNA. The series is described as follows: Inhibitor-1 mRNA levels by in situ hybridization after chronic fluoxetine. It is filed as in vivo, mouse. The following applies: hippocampus, prefrontal cortex, striatum; fluoxetine 10 mg/kg i.p. once daily for 19 days. Here is the method:
as §2

Series [3] has as its system WT and DARPP-32 KO mice. The series is described as follows: Tail-suspension test for antidepressant efficacy. It is filed as in vivo, mouse. The following applies: fluoxetine 5 or 10 mg/kg i.p. 30 min before the trial.
For series [4], the system named is WT and DARPP-32 KO mice. The series is described as follows: Locomotor activity measurements in activity monitors. The following applies: fluoxetine at the doses examined (5 or 10 mg/kg). It is filed as in vivo, mouse. Here is the method:
Locomotor activity of WT and DARPP-32 KO mice was measured in activity monitors (43×44×45 cm) equipped with both horizontal and vertical sensors (Opto-Varimex, Columbus Instruments, Columbus, Ohio). Mice were acclimated to the boxes for 1 h, […] before the day of the experiment. The day of the experiment, mice were placed in the boxes for 20 min (habituation period) before drug administration. […] Locomotor activity parameters (distance traveled and stereotypic movements) were quantified by using the AutoTrack System (Columbus Instruments).

Series [5] concerns DARPP-32. The experiment in a line: DARPP-32 phosphorylation in mouse brain slices, immunoblotting with phosphorylation state-specific antibodies. The following applies: slices from hippocampus, prefrontal cortex, striatum; fluoxetine 10 M printed. Background: In western blotting, separated proteins are transferred to a membrane and probed.
Series [6] in a line: pNPP hydrolysis by recombinant PP2C isoforms (phosphatase assay). The following applies: for Vmax / kcat / Km: pNPP as substrate; for Km: 37° C. It is filed as biochemical, rat. Here is the method:
The activity of PP2C isoforms using pNPP as substrate was assayed as previously described (Brumel et al., 1997). […] The reaction was stopped by addition of 1 ml of 0.1 M NaOH, and the initial rate of p-nitrophenol release was determined spectrophotometrically at 405 nm (using a molar extinction coefficient of 18 000 M−1 cm−1).
(§3) Kinetic parameters (Km and Vmax) were determined from Lineweaver-Burk plots.
Legend Table 7. Enzymatic activities of PP2C isoforms assayed using pNPP as substrate. Phosphatase activity was measured using pNPP as substrate by the change in absorbance at 405 nm. Km and Vmax values were calculated from Lineweaver-Burk plots of the data.

Series [7] concerns phospho-Ser137-DARPP-32. The experiment in a line: Dephosphorylation of phospho-Ser137-DARPP-32 by recombinant PP2C isoforms. It is filed as biochemical, rat. The following applies: [^32P]phospho-Ser137 DARPP-32 as substrate; in the presence of 10 mM Mn^2+. Here is the method: The activity of PP2C isoforms using ^32P-DARPP (phosphorylated at Ser137) was assayed at 37° C. in a reaction mixture containing 25 mM Tris-HCl, pH 7.5, 10 mM MnCl2, 1% BSA, and […] substrate, in a total volume of […]. Reactions were stopped by addition of […] of 50% trichloroacetic acid. Samples were then incubated on ice for 30 min and centrifuged at 10,000 g for 10 min at 4° C. Radioactivity recovered in the supernatant was measured by Cerenkov counting in a scintillation counter (Beckman).
as §3
Legend Table 8. Enzymatic activities of PP2C isoforms assayed using [^32P]phospho-Ser137 DARPP-32 as substrate. Phosphatase activity was measured by the release of ^32P, and Km and Vmax values were calculated from Lineweaver-Burk plots of the data.

Series [8] deals with phospho-Ser137-DARPP-32. The description is as above. It is filed as biochemical, rat. The following applies: phospho-Ser137-DARPP-32 as substrate; Mn^2+ or Mg^2+.
Setting [9] is: Hippocampus, 5 mg/kg i.p., 15 min.
Setting [10] is: Hippocampus, 10 mg/kg i.p., 15 min.
Setting [11] is: Hippocampus, 20 mg/kg i.p., 15 min.
The mark [12] stands for this setting: Striatum, 10 mg/kg i.p., 15 min.
Where [13] appears, read: Striatum, 20 mg/kg i.p., 15 min.

Marks after values point to notes of the source that are not given here.

`CNCCC(Oc1ccc(C(F)(F)F)cc1)c1ccccc1` (stereo not drawn) [Fluoxetine]: the “Percent Phospho-Thr34” value in the series on DARPP-32 [1] (Cortex, 5 mg/kg i.p., 15 min) was 144(7.4)* Percent; in the series on DARPP-32 [1] (Cortex, 10 mg/kg i.p., 15 min), 140(4.7)* Percent; in the series with DARPP-32 [1] (setting [9]), 150(3.8)* Percent; in the series on DARPP-32 [1] (setting [10]), 142(6.2)* Percent; in the series on DARPP-32 [1] (setting [11]) it was 141(11.6)* Percent; in the series on DARPP-32 [1] (Striatum, 5 mg/kg i.p., 15 min), 123(5.0)* Percent. Also, the “Percent Phospho-Thr34” value in the series on DARPP-32 [1] (setting [12]) is recorded as 155.2(12.9)* Percent; in the series with DARPP-32 [1] (setting [13]), 141(7.6)* Percent. Also, the “Percent Phospho-Thr75” value with DARPP-32 [1] (Cortex, 5 mg/kg i.p., 15 min) is listed as 86(7.0)* Percent; in the series on DARPP-32 [1] (Cortex, 10 mg/kg i.p., 15 min), 85(4.2)* Percent; in the series with DARPP-32 [1] (Cortex, 20 mg/kg i.p., 15 min), 82(7.3)* Percent; in the series with DARPP-32 [1] (setting [9]), 84(6.4)* Percent; with DARPP-32 [1] (setting [10]) it was 87(3.0)* Percent; in the series with DARPP-32 [1] (setting [11]) it was 88(3.0)* Percent. In addition, the “Percent Phospho-Thr75” value with DARPP-32 [1] (Striatum, 5 mg/kg i.p., 15 min) was 95(3.1) Percent; in the series with DARPP-32 [1] (setting [12]), 84.6(8.9)* Percent; in the series with DARPP-32 [1] (setting [13]) it was 92(2.1)* Percent. The “Percent Phospho-Ser137” value in the series on DARPP-32 [1] (Striatum, 5 mg/kg i.p., 15 min) is 120(8.7) Percent. In the series with DARPP-32 [1] (setting [12]), the “Percent Phospho-Ser102” value was 108(7.5) Percent. In addition, the “fraction of DARPP-32 phosphorylated at Thr-34, Thr-75, or Ser-137” value in the series on DARPP-32 [1] (chronic fluoxetine 10 mg/kg 19 days, challenged with saline, versus chronic saline/saline, normalized to total DARPP-32) was “no differences”. Moreover, the “ability of a challenge to increase phosphorylation at Ser-137” value in the series with DARPP-32 [1] (striatum, chronic fluoxetine 10 mg/kg 19 days, challenge 10 mg/kg) is given as “abolished”. Besides, the “total DARPP-32 protein” value is on record as 121% in the series with DARPP-32 [2] (hippocampus), 123% with DARPP-32 [2] (prefrontal cortex) and 102% in the series with DARPP-32 [2] (striatum). Besides, the “total inhibitor-1 protein” value with inhibitor-1 (hippocampus) was found to be 98%; in the series on inhibitor-1 (prefrontal cortex) it was 102%; in the series on inhibitor-1 (striatum), 97%. For the same molecule, the “DARPP-32 mRNA expression” value in the series with DARPP-32 mRNA (hippocampus and frontal cortex) is given as “increased”; in the series with DARPP-32 mRNA (striatum), “not in striatum”. Further, the “inhibitor-1 mRNA expression” value with inhibitor-1 mRNA is “no effects”. Besides, the “effect on immobility in the tail-suspension test” value with WT and DARPP-32 KO mice [3] (DARPP-32 KO mice) was “strongly attenuated”. The “immobility in the tail-suspension test” value with WT and DARPP-32 KO mice [3] (WT mice, 5 min trial) is “decreased immobility”. Also, in the series with WT and DARPP-32 KO mice [4], the locomotion entry is “not significantly affected”. In addition, the “effect of fluoxetine alone on DARPP-32 phosphorylation” value with DARPP-32 [5] is given as “no effect”.

B1: PP2Ca: recombinant his-tagged alpha isoform of protein phosphatase 2C cloned from rat striatum (protein)
chain: MGAFLDKPKMEKHNAQGQGNGLRYGLSSMQGWRVEMEDAHTAVIGLPSGLETWSFFAVYDGHAGSQVAKYCCEHLLDHITNNQDFKGSAGAPSVENVKNGIRTGFLEIDEHMRVMSEKKHGADRSGSTAVGVLISPQHTYFINCGDSRGLLCRNRKVHFFTQDHKPSNPLEKERIQNAGGSVMIQRVNGSLAVSRALGDFDYKCVHGKGPTEQLVSPEPEVHDIERSEEDDQFIILACDGIWDVMGNEELCDFVRSRLEVTDDLEKVCNEVVDTCLYKGSRDNMSVILICFPNAPKVSAEAVKKEAELDKYLENRVEEIIKKQGEGVPDLVHVMRTLASENIPSLPPGGELASKRNVIEAVYNRLNPYKNDDTDSASTDDMW
modifications: left off: small tags and cut ends
notes: recombinant his-tagged alpha isoform of protein phosphatase 2C cloned from rat striatum
In general, Vmax refers to the rate approached at saturating substrate. For orientation: kcat means the maximal rate divided by the concentration of active sites. As usually defined, the Km is the concentration of substrate that gives half-maximal velocity. With B1, the “Vmax of pNPP hydrolysis, Mn^2+ compared to Mg^2+ (higher)” value in series [6] (20 mM Mn^2+ versus 20 mM Mg^2+) is given as “approximately 50 fold”. In addition, in [6] (in the presence of 20 mM Mg^2+), the Vmax was 0.20 µmol/mg/min, the turnover number (kcat) was 0.16 s⁻¹ and the Km stood at 3100 µM. In series [6] (in the presence of 20 mM Mn^2+), the maximal velocity (Vmax) worked out at 7.49 µmol/mg/min, the turnover number (kcat) stood at 5.83 s⁻¹ and the Km was found to be 1530 µM. In addition, in the series on phospho-Ser137-DARPP-32 [7], the Km was 13.1 µM, the maximal velocity (Vmax) is 0.39 µmol/mg/min and the kcat was 0.31 s⁻¹. Also, the “divalent cation concentration for maximal activity” value in the series on phospho-Ser137-DARPP-32 [8] lay in the range of 4 to 5 mM.
